In US6452052B1, “Aniline disulfide derivatives for treating allergic diseases” (Alcon Universal Ltd., priority 2000, dated 2002):
Where “and” joins values, the source holds several entries; their conditions need not be identical. Equal entries are not always repeated. Where two headings read alike, the source gives them in different places.

Test system: human conjunctival tissue mast cells
Assay: Inhibition of anti-human IgE-induced histamine release from human conjunctival tissue mast cells (HCTMC)
Type: cell-based
Protocol: Methods detailing preparation of monodispersed HCTMC and mediator release studies with these cells have been described (U.S. Pat. No. 5,360,720 and Miller et al, Ocular Immunology and Inflammation, 4(1):39-49 (1996)). Briefly, human conjunctival tissue mast cells were isolated from post-mortem tissue donors obtained within 8 hours of death by various eye banks and transported in Dexsol® corneal preservation medium, or equivalent. Tissues were enzymatically digested by repeated exposure (30 min. at 37° C.) to collagenase and hyaluronidase (2× with 200 U each/gram tissue, then 2-4× with 2000 U each/gram tissue) in Tyrode's buffer containing 0.1% gelatin. (Tyrode's buffer (in mM): 137 NaCl, 2.7 KCl, 0.35 NaH2PO4, 1.8 CaCl2, 0.98 MgCl2, 11.9 NaHCO3, and 5.5 glucose). Each digestion mixture was filtered over Nitex® cloth (100 μm mesh, Tetko, Briarcliff Manor, N.Y.) and washed with an equal volume of buffer. Filtrates were centrifuged at 825×g (7 min). Pellets were resuspended in buffer then combined for enrichment over a […] Percoll® cushion. The enriched pellet was washed, resuspended in supplemented RPMI 1640 medium and incubated at 37° C. to equilibrate.
Cells were harvested from the culture plate and counted for viability (trypan blue exclusion) and mast cell number (toluidine blue O). Mast cells (5000/tube; 1 mL final volume) were challenged (37° C.) for 15 min with goat-anti-human IgE (10 μg/mL) following treatment (15 minutes; 37° C.) with test drug or Tyrode's buffer. Total and non-specific release controls were exposed to 0.1% Triton X-100 and goat IgG (10 μg/mL), respectively. The reaction was terminated by centrifugation (500×g, 4° C., 10 min). Supernatants were stored at −20° C. until analyzed for histamine content by RIA (Beckman Coulter, Chicago, Ill.).
All test drugs were made to solution immediately prior to use. Each was dissolved in DMSO at 10 mM or greater concentration and then diluted in Tyrode's buffer containing 0.1% gelatin over the concentration for evaluation.
Inhibition of histamine release was determined by direct comparison of with anti-IgE challenged mast cells using Dunnett's t-test (Dunnett, “A multiple comparison procedure for comparing treatments with a control”, J. Amer. Stat. Assoc. (1955), 50:1096-1121).

[1] = Homo sapiens, Mast cell, bracketed value = mean of the two determinations, anti-IgE challenged human conjunctival mast cells, read-out: IC50(nM), inhibition of histamine release, value in square brackets
[2] = individual determinations, mast cells 5000/tube, 15 min drug treatment at 37° C., then 15 min challenge with goat-anti-human IgE (10 μg/mL), histamine by RIA, read-out: IC50(nM), inhibition of histamine release

IC50 [1]	IC50 [2]	IC50 (Homo sapiens, Mast cell, 0.25 h, individual determinations, mast cells 5000/tube, 15 min drug treatment at 37° C., then 15 min challenge with goat-anti-human IgE (10 μg/mL), histamine by RIA, read-out: IC50(nM), inhibition of histamine release)	SMILES
56 nM	85 nM and 27 nM		C=CCC(=O)Nc1ccccc1SSc1ccccc1NC(=O)CC=C [Compound 1]
481 nM	656 nM and 306 nM		CC(=O)Nc1ccccc1SSc1ccccc1NC(C)=O [Compound 2]
1190 nM			CCOC(=O)Nc1ccccc1SSc1ccccc1NC(=O)OCC [Compound 5]
		1700 nM	CC(C)(C)C(=O)Nc1ccccc1SSc1ccccc1NC(=O)C(C)(C)C [Compound 6]
491 nM	690 nM and 292 nM		C=C(C)C(=O)Nc1ccccc1SSc1ccccc1NC(=O)C(=C)C [Compound 3]
	3180 nM and < 1000 nM		CC(O)CC(=O)Nc1ccccc1SSc1ccccc1NC(=O)CC(C)O (stereo not drawn) [Compound 4]
